From article PMC9974463 (Proceedings of the National Academy of Sciences of the …, 2023)

Assays:
AbCphZ = molecular target: T1, AbCphZ (Acinetobacter baylyi, UniProt Q6FCQ4, E251A); assay: isothermal titration calorimetry; format: binding
T1 sequence (Q6FCQ4 1-383 E251A): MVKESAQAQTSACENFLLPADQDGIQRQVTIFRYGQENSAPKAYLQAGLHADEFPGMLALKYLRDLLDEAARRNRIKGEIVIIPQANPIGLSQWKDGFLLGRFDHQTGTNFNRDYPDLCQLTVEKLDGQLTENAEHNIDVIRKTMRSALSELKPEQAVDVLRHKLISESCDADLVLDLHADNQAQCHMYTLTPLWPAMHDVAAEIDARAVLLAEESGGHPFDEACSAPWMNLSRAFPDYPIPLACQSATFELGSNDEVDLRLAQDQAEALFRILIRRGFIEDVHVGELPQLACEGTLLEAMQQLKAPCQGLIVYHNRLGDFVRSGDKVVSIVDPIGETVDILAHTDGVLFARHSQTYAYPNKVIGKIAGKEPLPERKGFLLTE

PaAotO = molecular target: T2, PaAotO (Pseudomonas aeruginosa, UniProt O50184); assay: Arg release coupled assay; format: biochemical; details: 1 mM substrate, 500 nM enzyme
T2 sequence (O50184 1-370): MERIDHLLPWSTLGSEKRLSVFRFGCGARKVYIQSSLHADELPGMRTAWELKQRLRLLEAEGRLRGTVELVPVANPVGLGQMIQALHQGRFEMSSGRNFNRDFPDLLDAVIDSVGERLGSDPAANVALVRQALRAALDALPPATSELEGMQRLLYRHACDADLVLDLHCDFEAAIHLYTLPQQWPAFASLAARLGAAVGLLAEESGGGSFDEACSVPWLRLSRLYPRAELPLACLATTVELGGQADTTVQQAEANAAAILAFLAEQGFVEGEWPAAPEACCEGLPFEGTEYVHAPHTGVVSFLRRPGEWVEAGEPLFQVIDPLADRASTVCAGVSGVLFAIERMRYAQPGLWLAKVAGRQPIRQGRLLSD

[1] = molecular target: Acinetobacter baylyi cyanophycin dipeptide hydrolase CphZ (Acinetobacter baylyi DSM587); assay: SEC
[2] = molecular target: AbCphZ E251A (Acinetobacter baylyi DSM587); assay: ITC

## N=C(N)NCCC[C@H](N)C(=O)O [Arg]
AbCphZ
  Kd: 471 ± 16.8 µM

## N=C(N)NCCC[C@H](NC(=O)C[C@H](N)C(=O)O)C(=O)O [β-Asp-Arg]
AbCphZ
  Kd: 7.6 ± 0.1 µM
PaAotO
  Arg release coupled assay (340 nm): AotO is specific for β-Asp-Arg and hydrolyzes it at a rate comparable to AbCphZ

## Acinetobacter baylyi cyanophycin dipeptide hydrolase CphZ (enzyme)
[1]
  stoichiometry N: 2

## β-Asp-Arg dipeptide
[2]
  Kd: 7.6 µM
